Measurements as given in patent publication US20230226227A1, “PROSTATE SPECIFIC MEMBRANE ANTIGEN (PSMA) LIGANDS AND USES THEREOF” (ADVANCED ACCELERATOR APPLICATIONS (ITALY) SRL, priority 2019, published 2023).
Entries after “also recorded” stand apart in the source; their conditions may differ.

Tests used:
[1] = Plasma protein binding by ultrafiltration, rat plasma; format: in vitro ADME
Procedure: (§1) Plasma protein binding of PSMA-R2 and ^175Lu-PSMA-R2 has been determined by ultrafiltration method, after incubation of the compounds in human, mouse, rat and minipig plasma at two different concentrations: 1 and 5 µg/mL.

[2] = Single dose toxicity study in the minipig; format: in vivo, Göttingen minipigs
Description: A two-week treatment-free period was allowed after administration.
All animals were administrated intravenously. Plasma samples were collected at Day 1 for toxicokinetic analysis.
Mortality, clinical signs, body weight, food consumption, clinical pathology investigations, ophthalmoscopy, ECG evaluations, and macroscopic observations were indexed at necropsy. Then selected organs were weighed and tissues collected.
In addition, plasma samples were collected on Day 1 for toxicokinetic analysis.

[3] = Effects on cardiovascular function of the conscious telemetered minipig; format: in vivo; conditions: iv 0.058, 0.175, 0.58 mg/kg
Procedure: The purpose of this study was to investigate the potential effects of ^175Lu-PSMA-R2 on the cardiovascular functions of the conscious telemetered male minipig following intravenous administration at doses of 0.058, 0.175 and 0.583 mg/kg.
The test item or vehicle was administered intravenously into the external auricular vein at a fixed injection rate of 4 mL/min. The dose was administered to each animal at a dose volume of 1 mL/kg body weight.
At 7-day intervals, each animal received the vehicle or one of the three doses of the test item, following the crossover design described in Table 4.
Systolic, diastolic and mean blood pressure (SBP, DBP and MBP), heart rate (HR), body temperature and Lead II electrocardiogram were recorded continuously, from 1 hour before administration up to 24 h after dosing. Haemodynamic and electrocardiographic data were reported at pre-dose and at 5, 15, 30 minutes and 1, 2, 4, 8 and 24 hours post-dose.

[4] = Behavioral Irwin test after single intravenous administration; format: in vivo, rat
Procedure: The aim of this study was to evaluate the possible effects of ^175Lu-PSMA-R2, at doses of 0.2, 0.6 and 2.0 mg/kg, on general behavior parameters in the rat after intravenous administration, according to the study design in Table 2.
The following parameters were evaluated: mortality, body weight, clinical signs and Irwin test.
The Irwin test was performed at the following intervals after dosing: 5, 15, 30 minutes and 1, 2 and 24 hours.

[5] = Plasma protein binding by ultrafiltration, mouse plasma; format: in vitro ADME
Procedure: as §1

[6] = Single dose toxicity study in the rat; format: in vivo, Sprague Dawley (SD) rats
Procedure: This study aimed at assessing the toxicity of ^175Lu-PSMA-R2 right after acute intravenous injection of 2 or 4 mg/kg among Sprague Dawley (SD) rats.
Two groups of 30 animals (1:1 male:female ratio) were administered with 2 and 4 mg/kg, respectively. A control group of equal characteristics was treated with the vehicle (Table 5).
Signs of reaction to treatment at all doses were assessed at 30, 120 and 240 min p.i. as well as 24 h later. At Day 2, 10 rats per gender and per group were sacrificed. The remaining 5 animals/gender/group were observed daily over14 days.
Body weight was recorded on the day of treatment group allocation, Day 1 (day of injection), 8 and 15. Food consumption was measured on Day 2 and weekly thereafter. At the end of treatment, urine samples were collected for urinalysis. On Day 2 and 15, blood samples withdrawn at sacrifice were screened for clinical pathologies. After dissection, organs were weighted and tissues were treated for microscopic analyses (over 50 different tissues were analyzed).

[7] = test system: Escherichia coli WP2 uvrA; test: Bacterial mutation assay, Escherichia coli; format: cell-based
Procedure: (§2) The test item ^175Lu-labelled PSMA-R2 solution was examined for the ability to induce gene mutations in tester strains of Salmonella typhimurium and Escherichia coli, as measured by reversion of auxotrophic strains to prototrophy. The five tester strains TA1535, TA1537, TA98, TA100 and WP2 uvrA were used. Experiments were performed both in the absence and presence of metabolic activation, using liver S9 fraction from rats pre-treated with phenobarbital and 5,6-benzoflavone.
(§3) The test item was used as a solution in sodium acetate buffer and all concentrations in this report are expressed in terms of active ingredient. The test item ^175Lu-labelled PSMA-R2 solution was assayed in the toxicity test at a maximum feasible concentration of 1000 µg/plate and at four lower concentrations spaced at approximately half-log intervals: 316, 100, 31.6 and 10.0 µg/plate.
(§4) On the basis of the results obtained in the preliminary toxicity test, in the Main Assay, using the plate incorporation method, the test item was assayed with all tester strains at the following dose levels: 1000, 500, 250, 125 and 62.5 µg/plate. […] Since a clear negative result was obtained, no further experiment was undertaken.

[8] = Plasma protein binding by ultrafiltration, human plasma; format: in vitro ADME; conditions: for fu (%) fraction unbound: human plasma
Procedure: as §1

[9] = test system: Salmonella typhimurium TA1535, TA1537, TA98, TA100; test: Bacterial mutation assay, Salmonella typhimurium; format: cell-based
Procedure: as §2, §3, §4

[10] = single iv 0.175, 0.58, 1.75 mg/kg
[11] = 10.0-1000 µg/plate, absence or presence of S9
[12] = 62.5-1000 µg/plate, absence or presence of S9
[13] = absence or presence of S9 metabolism

## O=C(O)CCC(NC(=O)NC(CCCCN(Cc1ccc(Br)cc1)C(=O)CCCCCNC(=O)CN1CCN(CC(=O)O)CCN(CC(=O)O)CCN(CC(=O)O)CC1)C(=O)O)C(=O)O.[175Lu] (stereo not drawn) [^175Lu-PSMA-R2]
[1]; 1 µg/mL
  fu (%) fraction unbound: 37.4 ± 4.9%
[1]; 5 µg/mL
  fu (%) fraction unbound: 59.8 ± 4.4%
[2]; high dose group (1.75 mg/kg)
  Hematology and clinical chemistry: Some changes in hematology and clinical chemistry were observed in some animals
[2]; [10]
  Organ weights, macroscopic or microscopic changes: No changes in the organ weights and no treatment-related macroscopic or microscopic changes
  Physical signs, ocular findings, electrocardiographic abnormalities: No treatment-related physical signs, ocular findings, nor electrocardiographic abnormalities
[2]; single iv 0.175, 0.583 and 1.75 mg/kg
  Toxicity signs: did not induce signs of toxicity; also recorded: No relevant treatment-related toxicity signs
[3]
  Changes in heart rate, arterial blood pressure or electrocardiographic activity: No relevant changes in heart rate, arterial blood pressure or electrocardiographic activity were observed at the tested doses in conscious mini pigs.
[4]; 6-day observation period
  Clinical signs: No clinical signs were observed
[4]; single iv 0.2, 0.6 and 2.0 mg/kg
  Mortality: No deaths occurred
[4]; single iv 0.2, 0.6 and 2.0 mg/kg, up to 24 h post-dose
  Effects on behavioral, neurologic or autonomic parameters (Irwin): did not induce any effects; also recorded: No effects
[5]; 1 µg/mL
  fu (%) fraction unbound: 71.1 ± 4.4%
[5]; 5 µg/mL
  fu (%) fraction unbound: 71.0 ± 2.2%
[6]; high dose (4 mg/kg), 30 min after dosing, no cause of death established
  Mortality: One death
[6]; high dose group, dead animal and 5 other animals
  Clinical signs immediately after dosing: Only decreased activity was noted
[6]; single iv 2 and 4 mg/kg
  Toxicity signs: did not induce toxicity signs; also recorded: No signs of toxicity observed
[7]; [11]
  Toxicity and revertant numbers, preliminary toxicity test: Neither toxicity, nor relevant increases in revertant numbers
[7]; [12]
  Toxicity and revertant numbers, Main Assay (plate incorporation): Neither toxicity, nor relevant increases in revertant numbers
[7]; [13]
  Induction of reverse mutation (conclusion): does not induce reverse mutation
[8]; 1 µg/mL
  fu (%) fraction unbound: 43.9± 5.1%
[8]; 5 µg/mL
  fu (%) fraction unbound: 45.0 ± 9.6%
[8]; human, plasma
  Plasma protein binding, assessment in words: non-highly bound
[9]; [11]
  Toxicity and revertant numbers, preliminary toxicity test: Neither toxicity, nor relevant increases in revertant numbers
[9]; [12]
  Toxicity and revertant numbers, Main Assay (plate incorporation): Neither toxicity, nor relevant increases in revertant numbers
[9]; [13]
  Induction of reverse mutation (conclusion): does not induce reverse mutation
